Data reported in patent US20050209169A1, “Use of boswellic acid and its derivatives for inhibiting normal and increased leucocytic elastase or plasmin activity” (Hermann P.T. Ammon, priority 1995, published 2005).

Tests used:
[1] = molecular target: T1, human leucocytic elastase (Homo sapiens, UniProt P08246); assay: Human leucocytic elastase activity in vitro, photometric, MeO-Suc-Ala-Ala-Pro-Val-p-nitroanilide substrate; assay type: biochemical; conditions: for remaining activity at 20 µM: 20 μM test compound, percentage of 100% controls, read-out: residual activity of human leucocytic elastase; for inhibitory effect on human leucocytic elastase: concentration of 20 μM each in the test, reference substances
T1 construct: purchased Calbiochem
T1 sequence (P08246 30-267): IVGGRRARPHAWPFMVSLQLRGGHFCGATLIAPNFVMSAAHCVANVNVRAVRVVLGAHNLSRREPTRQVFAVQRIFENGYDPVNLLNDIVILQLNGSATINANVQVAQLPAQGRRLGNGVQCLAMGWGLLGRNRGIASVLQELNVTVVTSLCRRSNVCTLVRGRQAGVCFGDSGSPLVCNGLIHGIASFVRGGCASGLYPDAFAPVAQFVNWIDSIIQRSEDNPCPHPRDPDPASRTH
Source text: The effects which differing concentrations of acetyl-11-keto-β-boswellic acid (AKBA) had on the human leucocytic elastase in these three series of measurement are shown as percentage of 100% controls as mean values±S.D. of three independent measurements each.

[2] = molecular target: T2, human plasmin (Homo sapiens, UniProt P00747); assay: Plasmin activity in vitro, photometric, substrate D-Ile-Phe-Lys-pNA; assay type: biochemical; conditions: for IC50: human plasmin in vitro, FIG. 2, read-out: half-maximum inhibition constants (IC50) of plasmin activity; for inhibition of plasmin activity, summary in words: in vitro test system, concentrations reachable in human blood after oral olibanum or frankincense extracts
T2 construct: purchased SIGMA
T2 sequence (P00747 581-810 limits assumed): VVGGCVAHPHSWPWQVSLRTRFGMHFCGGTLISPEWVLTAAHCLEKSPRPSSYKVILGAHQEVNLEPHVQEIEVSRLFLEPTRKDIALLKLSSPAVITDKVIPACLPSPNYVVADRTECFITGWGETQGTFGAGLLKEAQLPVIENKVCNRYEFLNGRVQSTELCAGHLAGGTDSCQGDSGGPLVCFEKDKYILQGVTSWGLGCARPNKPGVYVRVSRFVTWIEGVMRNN
T2 sequence (P00747 97-580 partner limits assumed): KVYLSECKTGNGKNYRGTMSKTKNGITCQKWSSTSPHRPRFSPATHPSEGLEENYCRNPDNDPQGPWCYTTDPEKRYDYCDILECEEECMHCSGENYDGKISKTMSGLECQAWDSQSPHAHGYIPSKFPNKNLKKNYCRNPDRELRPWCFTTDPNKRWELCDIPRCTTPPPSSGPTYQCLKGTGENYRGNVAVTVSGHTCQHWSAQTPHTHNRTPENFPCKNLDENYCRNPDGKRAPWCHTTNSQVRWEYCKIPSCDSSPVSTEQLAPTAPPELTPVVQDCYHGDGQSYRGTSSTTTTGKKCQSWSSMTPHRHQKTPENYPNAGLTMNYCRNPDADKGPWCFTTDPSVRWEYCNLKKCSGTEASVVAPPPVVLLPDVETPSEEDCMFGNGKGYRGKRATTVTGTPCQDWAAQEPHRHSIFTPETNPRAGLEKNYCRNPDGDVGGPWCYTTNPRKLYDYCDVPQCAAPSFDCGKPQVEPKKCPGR
Protocol: The activity of human plasmin (SIGMA) was determined photometrically in vitro with the substrate D-Ile-Phe-Lys-pNA (Cs-Szabo et al., Thrombosis Res. 1980, 20: 199-206). The plasmin activity is referred to as the release of p-nitronaniline per minute (nmole/min) from the substrate as mean values±S.D. of n=3 measurements each.

[3] = molecular target: chymotrypsin (Bos taurus, UniProt P00766); assay: Chymotrypsin activity in vitro, photometric, MeO-Suc-Ala-Ala-Pro-Phe-p-nitroanilide substrate
[4] = molecular target: T3, human leucoytic elastase (Homo sapiens, UniProt P08246); conditions: literature, Ying et al. 1991, Biochem. J. 277: 521-526; read-out: Ki values, inhibition of human leucocytic elastase; cited from earlier work
T3 sequence (P08246 30-267): T1 sequence (P08246 30-267)

Compound: CC(=O)OC1CCC2(C)C(CCC3(C)C2C(=O)C=C2C4C(C)C(C)CCC4(C)CCC23C)C1(C)C(=O)O (stereo not drawn) [AKBA, acetyl-11-keto-β-boswellic acid]
- remaining activity at 20 µM [1]: 18%
- IC50 ([1]; substrate concentrations of 50, 100 and 150 μM, 10% DMSO, room temperature, read-out: IC50 values, inhibition of human leucocytic elastase): ~17 µM
- IC50 [2]: 4 to 6 µM
- inhibition of plasmin activity, summary in words [2]: inhibited almost completely
- chymotrypsin activity, of the control activity ([3]; 50 μM test compound): 89%
- chymotrypsin activity, of the control activity ([3]; 100 μM test compound): 85%

Compound: C[C@H]1[C@H](C)CC[C@]2(C)CC[C@]3(C)C(=CC[C@@H]4[C@@]5(C)CC[C@@H](O)[C@](C)(C(=O)O)[C@@H]5CC[C@]43C)[C@H]12 [β-BA, β-boswellic acid]
- inhibition of plasmin activity, summary in words [2]: inhibited almost completely

Compound: amyrin
- influence on plasmin activity ([2]; concentrations up to 50 μM (not shown)): does not influence significantly
- inhibition of plasmin activity, summary in words [2]: not effective at all

Compound: C[C@]12CC[C@H]3[C@@H](CCC4=CC(=O)CC[C@@]43C)[C@@H]1CC[C@@H]2O [testosterone]
- inhibitory effect on human leucocytic elastase [1]: no inhibitory effect

Compound: CC1(C)[C@@H](O)CC[C@]2(C)[C@H]3C(=O)C=C4[C@@H]5C[C@@](C)(C(=O)O)CC[C@]5(C)CC[C@@]4(C)[C@]3(C)CC[C@@H]12 [glycerrhitinic acid]
- inhibitory effect on human leucocytic elastase [1]: no inhibitory effect

Compound: C[C@H]1[C@H](C)CC[C@]2(C(=O)O)CC[C@]3(C)C(=CC[C@@H]4[C@@]5(C)CC[C@H](O)C(C)(C)[C@@H]5CC[C@]43C)[C@H]12 [ursolic acid]
- Ki [4]: 4 to 6 µM
- remaining activity at 20 µM [1]: 11%
- IC50 [2]: ~15 µM
- inhibition of plasmin activity, summary in words [2]: substantially weaker
- chymotrypsin activity, of the control activity ([3]; 50 μM test compound): 56%
- chymotrypsin activity, of the control activity ([3]; 100 μM test compound): 30%

Compound: CCCCC/C=C\C/C=C\C/C=C\C/C=C\CCCC(=O)O [arachidonic acid]
- inhibitory effect on human leucocytic elastase [1]: no inhibitory effect

Compound: CC(Cc1ccc(O)c(O)c1)C(C)Cc1ccc(O)c(O)c1 (stereo not drawn) [NDGA]
- inhibitory effect on human leucocytic elastase [1]: no inhibitory effect

Compound: CC(C)c1ccc2c(c1)c(SC(C)(C)C)c(CC(C)(C)C(=O)O)n2Cc1ccc(Cl)cc1 [MK886]
- inhibitory effect on human leucocytic elastase [1]: no inhibitory effect

Compound: C[C@]12CCC(=O)C=C1CC[C@@H]1[C@@H]2[C@@H](O)C[C@@]2(C)[C@H]1CC[C@]2(O)C(=O)CO [cortisol]
- inhibitory effect on human leucocytic elastase [1]: no inhibitory effect
